How the values were obtained:
[1] = test system: striatal dopamine efflux (dopamine oxidation current); test: STN stimulation-evoked striatal dopamine efflux, constant potential amperometry, effects of selective reuptake inhibitors; assay type: in vivo, rat; conditions: post-drug, 20 mg/kg systemic injection, STN stimulation 15 pulses, 50 Hz, 300 μA
[2] = test system: glutamate release in ferret thalamic slices (A1 lamina of the LGN); test: HFS-induced glutamate release in thalamic slices measured with a glutamate sensor; assay type: cell-based
GABAA receptors = test: Extracellular recording of spontaneous spindle waves in LGN slice with GABAA receptors blocked; assay type: cell-based; conditions: 20 μM in bath; ferret LGN slice; n=5 slices
Procedure: For the preparation of slices, 3-4 month old male or female ferrets (muftela putoriouf furo; Marshall Farms; North Rose, New York) were deeply anesthetized with sodium pentobarbital (30-40 mg/kg) and killed by decapitation. The forebrain was rapidly removed, and the hemispheres were separated with a midline incision. Four hundred micron thick slices were cut using a vibratome (Ted Pella, Inc.) in the sagittal plane. During preparation of slices, the tissue was placed in a solution (5° C.) in which NaCl was replaced with sucrose while maintaining an osmolarity of 307 mOsm to increase tissue viability. […]
Intracellular recording electrodes were formed on a Sutter Instruments P-2000 laser micropipette puller from medium-walled glass (WPI, 1B100F). […] The data was analyzed using Chart (eDaq) on a Pentium style computer and figures were drawn using Core1DRAW (Corel).
To test the functional effects of HFS-mediated glutamate release, simultaneous intracellular and extracellular recordings were made in the ferret lateral geniculate nucleus (LGN) in vitro slice preparation, which generates spontaneous spindle waves (FIG. 14; n=21). Spindle activity was recorded from a population of neurons (extracellular electrode), and the electrophysiological activity associated with the spindle activity was recorded from single neurons within that population. […]

In the case of `CN1Cc2c(N)cccc2C(c2ccccc2)C1` (stereo not shown) [nomifensine], the “recovery of dopamine efflux to prestimulation baseline levels (total duration)” value [1] is reported as 2035 ± 132 ms and the “STN electrical stimulation-evoked dopamine oxidation current (amplitude)” value ([1]; anaesthetized rat striatum) is reported as 765±38 pA.
With `NC1=N[C@H](O)[C@H]2[C@H]3O[C@]4(O)O[C@@H]([C@@H](O)[C@@]2(N1)[C@@H]4O)[C@]3(O)CO` [tetrodotoxin] the “block of glutamate release induced by HFS” value [2] was “failed to block”.
With picrotoxin the “effect on spontaneous spindle waves” value (GABAA receptors) was “transformed into events that resemble absence-seizure-like activity”.

From US20100305658A1 (priority 2004, published 2010)
